These results are taken from patent US20260022142A1, “MACROCYCLIC IMMUNOMODULATORS” (Bristol-Myers Squibb Company, priority 2022, published 2026).

Bridge positions count the residues as written; N and C are the ends. Square brackets hold non-standard residues; d marks the D form. Peptide text beside a SMILES is read from it. * marks the point of attachment. Bip = N[C@@H](Cc1ccc(-c2ccccc2)cc1)C(=O)O; Phe(3-Me) = Cc1cccc(C[C@H](N)C(=O)O)c1; Cha = N[C@@H](CC1CCCCC1)C(=O)O; Carboxymethyl = O=C(O)C*; Orn = NCCC[C@H](N)C(=O)O; Aun = NCCCCCCCCCCC(=O)O; Dab = NCC[C@H](N)C(=O)O; Dap = NC[C@H](N)C(=O)O

The target of the experiment is T1, PD-1/PD-L1 interaction (PE-labeled human PD-L1-Ig binding to Jurkat cell line over-expressing human PD-1) (Homo sapiens, UniProt Q15116).
T1 construct: expressed in transfected cells; host or cells: Jurkat
T1 sequence (Q15116 25-288): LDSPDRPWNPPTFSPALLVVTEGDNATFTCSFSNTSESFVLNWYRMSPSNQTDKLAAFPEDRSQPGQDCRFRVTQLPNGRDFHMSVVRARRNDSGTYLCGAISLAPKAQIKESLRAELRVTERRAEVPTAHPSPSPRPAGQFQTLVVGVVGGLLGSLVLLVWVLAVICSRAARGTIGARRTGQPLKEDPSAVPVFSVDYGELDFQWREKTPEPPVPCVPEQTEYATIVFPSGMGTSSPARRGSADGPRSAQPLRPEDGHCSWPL
Kind of experiment: Jurkat-PD-1 Cell Binding High-Content Screening Assay (CBA). The experiment is classed as cell-based. The following applies: Jurkat cell line over-expressing human PD-1; PE-labeled PD-L1-Ig 20 nM final; read-out: Jurkat hPD1-PDL1 IC50. In short, it runs like this:
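Binding of fluorescent PD-L1-Ig (20 nM final) to Jurkat-PD-1 cells was measured by automated imaging after 1 h, following a 2 h compound pre-treatment at 37° C.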
Regarding `Cc1cccc(C[C@@H]2NC(=O)[C@H](CC(=O)O)NC(=O)[C@H](Cc3ccc(OCC(=O)O)cc3)NC(=O)[C@H](CN)NC(=O)CSC[C@@H](C(=O)N[C@@H](CCN)C(=O)NCCCCCCCCCCC(=O)O)NC(=O)[C@@H](CCC(N)=O)NC(=O)[C@H](C(C)C)NC(=O)[C@H](CC3CCCCC3)NC(=O)[C@H](CCN)NC(=O)[C@@H](CC(C)C)NC(=O)[C@H](CCCN)NC(=O)[C@H](Cc3ccc(O)cc3)NC(=O)[C@H](Cc3ccc(-c4ccccc4)cc3)NC(=O)[C@H](Cc3ccc(O)cc3)NC2=O)c1` [Compound 2715] ({CH2CO}-[Dap]Y(Carboxymethyl)D[Phe(3-Me)]Y[Bip]Y[Orn][dL][Dab][Cha]V[dQ]C[Dab][Aun]-OH; thioether N-14), the 50% inhibitory concentration (IC50) amounted to 8.9 nM.

On to `Cc1cccc(C[C@@H]2NC(=O)[C@H](CC(=O)O)NC(=O)[C@H](Cc3ccc(OCC(=O)O)cc3)NC(=O)[C@H](CN)NC(=O)CSC[C@@H](C(=O)N[C@@H](CCN)C(=O)NCCCCCCCCCCC(=O)O)NC(=O)[C@@H]([C@H](C)O)NC(=O)[C@H](C(C)C)NC(=O)[C@H](CC3CCCCC3)NC(=O)[C@H](CCN)NC(=O)[C@@H](CC(C)C)NC(=O)[C@H](CCCN)NC(=O)[C@H](Cc3ccc(O)cc3)NC(=O)[C@H](Cc3ccc(-c4ccccc4)cc3)NC(=O)[C@H](Cc3ccc(O)cc3)NC2=O)c1` [Compound 2716] ({CH2CO}-[Dap]Y(Carboxymethyl)D[Phe(3-Me)]Y[Bip]Y[Orn][dL][Dab][Cha]V[dT]C[Dab][Aun]-OH; thioether N-14), for which the IC50 is 24.3 nM.

For `Cc1cccc(C[C@@H]2NC(=O)[C@H](CC(=O)O)NC(=O)[C@H](Cc3ccc(OCC(=O)O)cc3)NC(=O)[C@H](CN)NC(=O)CSC[C@@H](C(=O)N[C@@H](CCN)C(=O)NCCCCCCCCCCC(=O)O)NC(=O)[C@H]([C@@H](C)O)NC(=O)[C@H](C(C)C)NC(=O)[C@H](CC3CCCCC3)NC(=O)[C@H](CCN)NC(=O)[C@@H](CC(C)C)NC(=O)[C@H](CCCN)NC(=O)[C@H](Cc3ccc(O)cc3)NC(=O)[C@H](Cc3ccc(-c4ccccc4)cc3)NC(=O)[C@H](C(C)C)NC2=O)c1` [Compound 2717] ({CH2CO}-[Dap]Y(Carboxymethyl)D[Phe(3-Me)]V[Bip]Y[Orn][dL][Dab][Cha]VTC[Dab][Aun]-OH; thioether N-14), the IC50 was 17.1 nM.

In the case of `Cc1cccc(C[C@@H]2NC(=O)[C@H](CC(=O)O)NC(=O)[C@H](Cc3ccc(OCC(=O)O)cc3)NC(=O)[C@H](CN)NC(=O)CSC[C@@H](C(=O)N[C@@H](CCN)C(=O)NCCCCCCCCCCC(=O)O)NC(=O)[C@H](CO)NC(=O)[C@H](C(C)C)NC(=O)[C@H](CC3CCCCC3)NC(=O)[C@H](CCN)NC(=O)[C@@H](CC(C)C)NC(=O)[C@H](CCCN)NC(=O)[C@H](Cc3ccc(O)cc3)NC(=O)[C@H](Cc3ccc(-c4ccccc4)cc3)NC(=O)[C@H](C(C)C)NC2=O)c1` [Compound 2718] ({CH2CO}-[Dap]Y(Carboxymethyl)D[Phe(3-Me)]V[Bip]Y[Orn][dL][Dab][Cha]VSC[Dab][Aun]-OH; thioether N-14), the IC50 stood at 31.3 nM.

For `Cc1cccc(C[C@@H]2NC(=O)[C@H](CC(=O)O)NC(=O)[C@H](Cc3ccc(OCC(=O)O)cc3)NC(=O)[C@H](CN)NC(=O)CSC[C@@H](C(=O)N[C@@H](CCN)C(=O)NCCCCCCCCCCC(=O)O)NC(=O)[C@H](CCC(N)=O)NC(=O)[C@H](C(C)C)NC(=O)[C@H](CC3CCCCC3)NC(=O)[C@H](CCN)NC(=O)[C@@H](CC(C)C)NC(=O)[C@H](CCCN)NC(=O)[C@H](Cc3ccc(O)cc3)NC(=O)[C@H](Cc3ccc(-c4ccccc4)cc3)NC(=O)[C@H](C(C)C)NC2=O)c1` [Compound 2719] ({CH2CO}-[Dap]Y(Carboxymethyl)D[Phe(3-Me)]V[Bip]Y[Orn][dL][Dab][Cha]VQC[Dab][Aun]-OH; thioether N-14), the IC50 turned out to be 7.4 nM.

The term IC50 denotes the point on the concentration scale where inhibition reaches its midpoint.
